The values that follow come from patent US20020006930A1, “Method for stimulating liver regeneration” (priority 2000, published 2002).

Data set [1] relates to proliferative factors (PF) in the plasma of PHX rats. The data set is described as follows: Hepatocyte primary culture bioassay for proliferative factor (PF) production in plasma after 2/3 PHX. The format is in vivo, rat. Conditions: for reversal of L-NAME-induced blockade/inhibition: PHX rats given L-NAME plus L-arginine, in vivo. As for the experimental part:
The production of proliferative factors (PFs) was determined as previously described (21) . Briefly, PHX or PVL was performed as described above. Four hours after PHX or PVL, the diaphragm was cut and a blood sample drawn ([…] per rat) from the right ventricle of the heart using a 21 G 1.5-inch needle and a 10 ml sterile syringe. In a tissue culture hood, the blood was transferred to a sterile centrifuge tube, centrifuged at 2500 g for 20 minutes, and plasma stored at −20° C. The collagenase perfusion and hepatocyte isolation method was modified from Seglen (22), and has been previously described (21). Male Sprahue-Dawley rats (250 g) were anesthetized using sodium pentobarbital (6.5 mg/100 g, i.p.) and livers were perfused according to Seglen (22). Isolated cells were seeded (1×10^5 cells/ml, 2 ml per well) in six-well culture plates and allowed to attach to the plate overnight at 37° C. The next day, unattached cells were washed out of the wells and the starting viable cell number was counted from three randomly selected wells. Trypsin-EDTA (Gibco, BRL) was used to isolate attached hepatocytes from the plate and the hepatocytes were counted using a hemocytometer (Fisher Scientific). Fresh medium and plasma samples from PHX rats (10% final concentration) were added to the rest of the wells (three wells per sample). The medium, containing plasma, was changed at 24 hours. The attached viable cells were harvested at 48 hours. and the final count of viable hepatocytes was determined. The PF levels were expressed as net cell proliferation (viable cell count per well at 48 hours minus starting cell count per well).
The experiment was aimed to develop and optimize a hepatocyte primary culture bioassay to detect proliferative factors (PF) in the plasma or serum of partial hepatectomized (PHX) rats, which could serve as an index of the initiation of liver regeneration cascade.
The bioassay detects the presence of PF by measuring hepatocyte proliferation through a directly counting cell number increases over the culture period using a hemacytometer. The procedure of liver perfusion and hepatocyte purification was adopted from Seglen (1976 Methods Cell Biol. 13, 29) using Sprague Dawley rats. The purified hepatocytes ([…]) were seeded into 6-well culture plates and allowed to attach to the plate overnight at 37° C. The unattached cells were then washed out and the starting cell count was determined from 3 randomly picked wells in the culture after trypsin digestion. Sera collected from ⅔ PHX rats at 1-6 hours post PHX was added to the culture. With a medium change at 24 hours, the final cell counting was performed at 48 hours. The net cell proliferation was expressed as the difference between the counts at 48 hours and starting at hour (0 hr).
The optimized assay conditions ([…] plating concentration, 10% serum, 48 hr culture) were able to detect an increase of PF in PHX rat serum between 1-4 hours after PHX, with a peak activity at 4 hours (unpooled serum n=5/time point, pooled n=5/point). The assay has a high sensitivity to detect PF in ⅓ PHX rat serum (n=7), which was not detectable using the conventional DNA synthesis method.
(§1) To test the hypotheses, an […] hepatocyte primary culture bioassay was developed to detect PF in the plasma of PHX rats as an index of the initial trigger. The PHX surgery was performed according to the conventional method. Liver weight was also measured from the post PHX recovered rats to directly assess liver regeneration in vivo. The level of flow-dependent factors (e.g. adenosine (Ado), NO) was pharmacologically manipulated to test their roles in triggering the liver regeneration cascade.

In another data set the test system is c-fos mRNA. The data set is described as follows: Hepatic c-fos mRNA expression after 2/3 PHX (northern blot). The class given is in vivo, rat. As for the experimental part:
Animals were divided into four groups: sham procedures, PHX, PHX+L-NAME (Sigma), a Nos antagonist, and PHX+L-NAME+3morpholinosydnonimine (SIN-1, Alexis Corp.), a NO donor. Animals were anesthetized by sodium pentobarbital (6.5 mg/100 g. i.p; MTC Pharmaceuticals). Anesthesia was maintained using a continuous i.v. infusion (Harvard infusion pump, model 2720) of sodium pentobarbital (1.08 mg/ml saline, 1.0 ml/100 g/hr) via a cannula inserted into the femoral vein (PE50), Intramedic Clay Adams Brand, Becton-Dickinson). All surgical procedures were performed between the 10:00 am and 2:00 pm. Arterial blood pressure was monitored via a cannula (PE50, Intramedic Clay Adams Brand, Becton-Dickson) inserted into the femoral artery. To facilitate breathing a tracheotomy was performed using a polyethylene tube (PE240, Intramedic Clay Adams Brand, Becton-Dickinson) inserted into the trachea. Body temperature was maintained at 37.5±0.5° C. by the use of a rectal thermometer (Hanna Instruments) and a heated surgical table (Harvard Apparatus). Laparotomy was performed and a 24 G cather (Optiva™, Johnson and Johnson Medical Inc.) was inserted into the portal vein. The rat was then allowed to stabilize for 30 minutes.
A 0.5 ml bolus of L-NAME (5.0 mg/kg), or saline was infused intravenously over two minutes. Ten minutes later, PHX (resection of the left lateral and median lobes as described by Higgins and Anderson (20) or gentle manipulation of the liver lobes was performed. Resected lobes were litigated using black braided surgical silk (size 0, Ethicon) and excised. […] Fifteen minutes after PHX, or sham manipulation, the remaining liver was removed, slashed and blotted to remove blood, and immediately frozen on dry ice. Portal venous pressure (PVP) was measured, using an R-611 SensorMedics Dynograph Recorder, immediately before and after PHX.
For additional experiments involving PHX+L-NAME, the surgical procedure was exactly the same at that for the ⅔ PHX described above, except that the remaining liver as removed at 30, 45 or 60 minutes after PHX.
Total RNA was isolated by a method modified from Chirgwin et al. (23). Liver tissue was homogenized (Brinkman, Polytron) in lithium chloride/urea (3M/6M; Sima). The homogenized was centrifuged at 25000 rpm (Brinkman L8-70M Ultracentrifuge) for 20 minutes at 4° C. […] The concentration of the RNA was then determined using a spectrophotometer (Ultrospec2000, Pharamacia Biotech). […] The membranes were prehybridized at 42° C. for 3 hours in prehybridization buffer consisting of 5×SSC, 7% SDS (Sigma), sheared denatured salmon sperm DNA (100 μg/ml, Gibco BRL) and 5×Denhardt's solution (Sigma). c-fos mRNA was detected using a 2.1 kb cDNA probe (kindly provided by Dr. C Steer, university of Minnesota, Minneapolis, Minn.). […]

For data set [2], the system named is proliferative factor (PF) activity in blood after PVL. The experiment in a line: Hepatocyte bioassay for PF activity in blood after selective portal vein branch ligation (PVL). The class given is in vivo, rat. The text has this: Rats were divided into four groups: sham PVL, PVL, PVL+L-NAME and PVL+L-NAME+SIN-1. Surgical procedures were the same as described for PHX except that liver lobes were not ligated and […]. Rather, the left branch of the portal vein was carefully isolated and […]. The left branch of the portal vein was carefully isolated from the surrounding hepatic artery, hepatic nerves, bile duct and lymphatics. A thread was slipped around the left branch of the portal vein and the animal was allowed to recover for one hour. Following the recovery period, saline or L-NAME was administered as described for the PHX group, and the PVL+L-NAME+SIN-1 group received SIN-1 as indicated above. […] PVP was measured immediately before and after PVL, as described for PHX surgery.
The production of proliferative factors (PFs) was determined as previously described (21) . […] The next day, unattached cells were washed out of the wells and the starting viable cell number was counted from three randomly selected wells. Trypsin-EDTA (Gibco, BRL) was used to isolate attached hepatocytes from the plate and the hepatocytes were counted using a hemocytometer (Fisher Scientific). […] The attached viable cells were harvested at 48 hours. and the final count of viable hepatocytes was determined. The PF levels were expressed as net cell proliferation (viable cell count per well at 48 hours minus starting cell count per well).

Another data set deals with two-thirds PHX rats. The data set is described as follows: Restoration of liver weight and survival after two-thirds PHX. The format is in vivo, rat. Conditions: for post surgery survival rate: 36-44 hours. As to the method: The extent of liver regeneration can be assessed from a number of parameters, the most direct being the restoration of liver weight following PHX. […] Unfortunately, the liver regeneration studies are made complex by the well known observation that NO synthase blockade can potentiate the toxic reaction to inflammatory conditions. […] This can have been a factor in these studies where 6 of 14 rats died in the high dose group between 36 and 44 hours. These animals had only 18±4.7% regeneration. The ability to inhibit regeneration is compatible with a triggering role for NO.
as §1

Another data set concerns cultured hepatocytes. The experiment in a line: Cultured hepatocytes exposed to L-NAME in vitro. The format is cell-based, rat. The settings on record: L-NAME at concentrations estimated to occur in the in vivo experiments. The text has this: To determine whether NO served as a trigger to initiate a further cascade of events or whether it served as a direct proliferating stimulus on hepatocytes, the cultured hepatocytes were exposed to concentrations of L-NAME estimated to occur in the in vivo experiments.

Molecules are shown by their SMILES. “Also recorded” adds a separate entry of the source.

On to `Nc1ncnc2c1ncn2[C@@H]1O[C@H](CO)[C@@H](O)[C@H]1O` [Ado, adenosine], for which the “effect on PF generation” value in data set [1] (2/3 PHX rats, adenosine level manipulated) is “no significant effects”.
For `N=C(N)NCCC[C@H](N)C(=O)O` [L-arginine], the entries for the “reversal of L-NAME-induced blockade/inhibition” value in data set [1] and in data set [1] (listed as L-Arginine) were “reversed the L-NAME inhibitory effect” and “significantly reversed the inhibition by L-NAME”, respectively.
For the molecule `CC(=O)NC(C(=O)O)C(C)(C)SN=O` (racemic) [SNAP, S-nitroso-N-acetyl-D,L-penacillamine], the “c-fos mRNA expression” value is on record as “potentiates” with c-fos mRNA (after PHX, SNAP 5 mg/kg) and “no effect” in the data set on c-fos mRNA (sham operated livers, SNAP 5 mg/kg).
For the molecule `CCCOc1ccccc1-c1nc2nn[nH]c2c(=O)[nH]1` [Zaprinast], the “c-fos mRNA expression” value in the data set on c-fos mRNA (after ⅔ PHX, Zaprinast 10 and 30 mg/kg) is “potentiated”.
For `N=c1c[n+](N2CCOCC2)[n-]o1` [SIN-1, 3-morpholinosydnonimine], the “reversal of L-NAME inhibition of PF activity” value is listed as “reversed the inhibition” in data set [1] (PHX, PF activity in blood four hours after) and “reversed the inhibition” in data set [2] (PF activity in blood four hours after).
With `COC(=O)[C@@H](N)CCCNC(=N)N[N+](=O)[O-]` [L-NAME, N-nitro-Larginine methyl ester], the “post surgery survival rate” value is on record as “about 50%” in the data set on two-thirds PHX rats (L-NAME + PHX group (n=14), PHX control 100%) and 100% in the data set with two-thirds PHX rats (L-NAME-no-PHX control group (n=6)). Besides, the “restoration of liver weight (regeneration)” value in the data set with two-thirds PHX rats (48 hours post-PHX, low dose of L-NAME) was “did not significantly inhibit regeneration”. In addition, in the data set with two-thirds PHX rats (high dose L-NAME group after PHX, between 36 and 44 hours), the rats that died is reported as 6 of 14. Also, in the data set on two-thirds PHX rats (high dose L-NAME group, rats that died between 36 and 44 hours), the “regeneration in animals that died” value came out at 18±4.7%. Moreover, the “appearance/generation of PF in the plasma” value in data set [1] (two-thirds PHX rats, L-NAME i.v. at early time points after PHX, 4 hours peak PF) was “block 4 hours peak PF generation; also recorded: blocked the appearance of PF in the plasma; also recorded: inhibited”. For the same molecule, in data set [1] (two-thirds PHX rats, i.v., not further inhibited by 5.0 mg/kg), the “dose giving maximum inhibition of PF appearance” value is given as 2.5 mg/kg. Besides, the “c-fos mRNA expression at 30, 45 and 60 minutes compared to 15 minutes after PHX” value in the data set on c-fos mRNA (L-NAME 5.0 mg/kg i.v. prior to PHX) is on record as “no difference in c-fos mRNA expression”. Moreover, the “direct effect on hepatocyte proliferation in vitro” value in the data set with cultured hepatocytes is given as “positive proliferative stimulus”. Besides, the “PF activity in blood” value in data set [2] (four hours after, L-NAME) is given as “inhibited”.
